From patent US12581252B2, “Substituted pyrrolo[3,4-b]pyridines as PI3K-α inhibitors” (Relay Therapeutics, Inc., priority 2020, dated 2026)

molecular target: H1047R PIK3CA enzyme (Homo sapiens, UniProt P42336, H1047R); assay: ADP-Glo Biochemical PIK3CA Kinase Assay
Sequence (P42336 whole entry H1047R): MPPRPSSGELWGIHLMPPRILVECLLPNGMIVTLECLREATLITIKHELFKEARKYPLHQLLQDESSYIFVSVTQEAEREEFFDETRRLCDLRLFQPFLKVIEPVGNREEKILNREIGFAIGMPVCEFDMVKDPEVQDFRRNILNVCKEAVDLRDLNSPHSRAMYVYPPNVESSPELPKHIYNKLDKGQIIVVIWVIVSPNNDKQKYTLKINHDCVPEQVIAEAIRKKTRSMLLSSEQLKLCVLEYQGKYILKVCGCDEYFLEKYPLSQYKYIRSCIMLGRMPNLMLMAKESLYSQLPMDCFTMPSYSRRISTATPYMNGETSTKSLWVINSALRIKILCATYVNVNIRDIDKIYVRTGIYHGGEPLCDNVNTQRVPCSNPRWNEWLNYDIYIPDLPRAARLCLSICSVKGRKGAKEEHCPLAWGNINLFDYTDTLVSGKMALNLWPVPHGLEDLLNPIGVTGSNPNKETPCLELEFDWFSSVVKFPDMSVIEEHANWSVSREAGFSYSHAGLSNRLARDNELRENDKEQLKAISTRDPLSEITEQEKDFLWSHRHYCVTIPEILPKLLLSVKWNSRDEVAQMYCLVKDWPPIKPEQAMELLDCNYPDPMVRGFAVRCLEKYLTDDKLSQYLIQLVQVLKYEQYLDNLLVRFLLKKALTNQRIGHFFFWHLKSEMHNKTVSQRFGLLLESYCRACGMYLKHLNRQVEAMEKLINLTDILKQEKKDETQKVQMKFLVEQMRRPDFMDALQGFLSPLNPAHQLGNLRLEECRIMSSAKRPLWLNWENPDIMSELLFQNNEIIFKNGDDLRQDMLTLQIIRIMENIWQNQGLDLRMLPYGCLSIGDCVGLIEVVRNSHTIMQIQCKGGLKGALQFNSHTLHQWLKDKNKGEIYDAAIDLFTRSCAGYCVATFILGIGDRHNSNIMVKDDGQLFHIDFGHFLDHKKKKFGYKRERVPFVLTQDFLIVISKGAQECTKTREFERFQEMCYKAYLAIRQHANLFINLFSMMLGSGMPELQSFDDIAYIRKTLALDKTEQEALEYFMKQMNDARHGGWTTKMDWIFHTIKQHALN
Sequence (P27986 whole entry partner): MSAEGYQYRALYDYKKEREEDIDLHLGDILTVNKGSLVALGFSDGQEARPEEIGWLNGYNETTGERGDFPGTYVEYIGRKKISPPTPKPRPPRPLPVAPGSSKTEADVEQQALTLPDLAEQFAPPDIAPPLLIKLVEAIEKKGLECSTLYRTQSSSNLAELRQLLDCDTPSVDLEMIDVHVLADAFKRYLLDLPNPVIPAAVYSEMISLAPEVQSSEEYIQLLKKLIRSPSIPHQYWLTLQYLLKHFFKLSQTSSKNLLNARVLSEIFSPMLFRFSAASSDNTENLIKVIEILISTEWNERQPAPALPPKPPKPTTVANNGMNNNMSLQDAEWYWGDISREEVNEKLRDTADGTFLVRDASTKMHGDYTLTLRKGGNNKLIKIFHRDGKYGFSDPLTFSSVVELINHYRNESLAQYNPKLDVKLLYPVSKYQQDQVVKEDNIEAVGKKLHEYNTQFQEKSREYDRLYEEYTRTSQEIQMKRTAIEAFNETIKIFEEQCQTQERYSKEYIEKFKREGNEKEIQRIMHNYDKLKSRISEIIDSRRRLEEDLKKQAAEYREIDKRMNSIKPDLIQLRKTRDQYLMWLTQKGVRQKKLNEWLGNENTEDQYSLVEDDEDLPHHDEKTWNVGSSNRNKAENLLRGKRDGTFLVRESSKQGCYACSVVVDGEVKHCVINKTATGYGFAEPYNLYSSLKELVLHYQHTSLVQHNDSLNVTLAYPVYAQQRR

SMILES	IC50 [µM]
Cc1ccccc1C1NC(=O)c2c(Br)ccc(NC(=O)c3nsc4ccccc34)c21 (stereo not drawn) [Compound I-203]	≤ 0.1
NC(=O)CCN(C(=O)c1cc(F)cc(C(F)(F)F)c1)c1cc(O)cc2c1C(c1cc(F)ccc1Cl)NC2=O (stereo not drawn) [Compound I-2309]	10 to 100
O=C1N[C@@H](c2cc(F)ccc2Cl)c2c(NC(=O)[C@@H]3CCCCN3)cc(-c3ccc4ncnn4c3)cc21 (racemic) [Compound I-1780]	10 to 100
O=C(Nc1cc(Br)cc2c1C(c1cc(F)ccc1Cl)NC2=O)c1cc(F)cc(C(F)(F)F)c1Cl (stereo not drawn) [Compound I-809]	1 to 10
O=C(Nc1cc(-c2cnc3ncc(Cl)n3c2)cc2c1[C@@H](c1cc(F)ccc1Cl)NC2=O)c1cc(F)cc(C(F)(F)F)c1 [Compound I-1984]	0.5 to 1
O=C1N[C@H](c2cc(F)ccc2Cl)c2c(NC(=O)N3C[C@@](O)(C(F)(F)F)c4cc(F)ccc43)cc(C(F)F)cc21 (single isomer, unassigned) [Compound I-2577]	1 to 10
N#C[C@H]1CCN(C(=O)Nc2cc(-c3ccc4ncnn4c3)cc3c2C(c2cc(F)ccc2Cl)NC3=O)C1 (mixture of isomers) [Compound I-2415]	10 to 100
Cc1ccccc1C1NC(=O)c2cccc(NC(=O)c3cnc4ccc(Cl)cn34)c21 (stereo not drawn) [Compound I-47]	10 to 100
O=C1N[C@@H](c2cc(F)ccc2Cl)c2c(NC(=O)N3C[C@H](O)c4cc(F)ccc43)cc(-c3ccc(=O)n(C(F)F)c3)cc21 (single isomer, unassigned) [Compound I-2450]	1 to 10
C[C@H](c1nn[nH]c1C(=O)Nc1cccc2c1[C@@H](c1cc(F)ccc1Cl)NC2=O)C(F)(F)F (single isomer, unassigned) [Compound I-2268]	10 to 100
CN1CCCC[C@@H]1[C@@H]1NC(=O)c2cccc(NC(=O)c3cc(F)cc(C(F)(F)F)c3)c21 (racemic) [Compound I-1713]	10 to 100
CS(=O)(=O)N1CCC[C@H](Oc2cc(NC(=O)c3cc(F)cc(C(F)(F)F)c3)c3c(c2)C(=O)NC3c2cc(F)ccc2Cl)C1 (mixture of isomers) [Compound I-1526]	0.1 to 0.5
O=C(Nc1cc(C(O)c2ccccn2)cc2c1C(c1cc(F)ccc1Cl)NC2=O)c1cc(F)cc(C(F)(F)F)c1 (stereo not drawn) [Compound I-1278]	≤ 0.1
O=C(Nc1cccc2c1C(c1cc(F)ccc1Cl)NC2=O)c1cc(Cl)cc(F)c1F (stereo not drawn) [Compound I-767]	0.1 to 0.5
CS(=O)(=O)Cn1cc(-c2cc(NC(=O)c3cc(F)cc(C(F)(F)F)c3)c3c(c2)C(=O)NC3c2cc(F)ccc2Cl)cn1 (stereo not drawn) [Compound I-1336]	≤ 0.1
N#Cc1cnc2cc(F)c(-c3cc(NC(=O)c4cc(F)cc(C(F)(F)F)c4)c4c(c3)C(=O)N[C@H]4c3cc(F)ccc3Cl)cn12 [Compound I-1884]	≤ 0.1
O=C1NC(c2cc(F)ccc2Cl)c2c1cc(-c1ccc3ncnn3c1)cc2N1C(=O)CCC1=O (stereo not drawn) [Compound I-1990]	10 to 100
Cc1ccccc1C1NC(=O)c2cccc(NC(=O)c3nsc4ccc(-c5cnn(C)c5)cc34)c21 (stereo not drawn) [Compound I-445]	1 to 10
O=C1NC(c2cc(F)ccc2Cl)c2c(NC(=O)N3CCCC34CC4)cccc21 (stereo not drawn) [Compound I-2467]	1 to 10
CC1(Nc2cc(NC(=O)c3cc(F)cc(C(F)(F)F)c3)c3c(c2)C(=O)NC3c2cc(F)ccc2Cl)COC1 (stereo not drawn) [Compound I-610]	≤ 0.1
O=C(Nc1cc(-c2ccc3nc(Cl)nn3c2)cc2c1[C@@H](c1cc(F)ccc1Cl)NC2=O)c1cc(F)cc(C(F)(F)F)c1 [Compound I-1692]	1 to 10

SMILES	IC50 [µM]
O=C(Nc1cc(Cc2ccc3c(c2)CNC3=O)cc2c1[C@@H](c1cc(F)ccc1Cl)NC2=O)c1cc(F)cc(C(F)(F)F)c1 (stereo in doubt) [Compound I-1613]	0.1 to 0.5
Cn1c(Cl)cc(C(=O)Nc2cc(Br)cc3c2C(c2cc(F)ccc2Cl)NC3=O)cc1=O (stereo not drawn) [Compound I-1209]	10 to 100
NC(=O)C(C(=O)Nc1cc(-c2ccc3ncnn3c2)cc2c1C(c1cc(F)ccc1Cl)NC2=O)c1ccccc1 (stereo not drawn) [Compound I-1787]	1 to 10
N#Cc1ccccc1C(=O)Nc1cc(Br)cc2c1C(c1cc(F)ccc1Cl)NC2=O (stereo not drawn) [Compound I-639]	10 to 100
N#Cc1ccc(C2NC(=O)c3cccc(NC(=O)c4cc(F)cc(C(F)(F)F)c4)c32)c(Cl)c1 (stereo not drawn) [Compound I-422]	10 to 100
N#CCOc1cc(NC(=O)c2cc(F)cc(C(F)(F)F)c2)c2c(c1)C(=O)N[C@@H]2c1cc(F)ccc1Cl [Compound I-1887]	0.5 to 1
O=C(Nc1cccc2c1[C@H](CC1CCCC1)NC2=O)c1cc(F)cc(C(F)(F)F)c1 [Compound I-2153]	1 to 10
O=C(Nc1cc(/N=C2\OC[C@@H]3CCCN23)cc2c1C(c1cc(F)ccc1Cl)NC2=O)c1cc(F)cc(C(F)(F)F)c1 (stereo partly drawn) [Compound I-2355]	0.1 to 0.5
O=C(Nc1cc(Br)cc2c1C(c1cc(F)ccc1Cl)NC2=O)c1ccccc1C(F)F (stereo not drawn) [Compound I-518]	10 to 100
Cc1ncc(-c2cc(NC(=O)c3cc(F)cc(Cl)c3)c3c(n2)C(=O)NC3c2cc(F)ccc2Cl)s1 (stereo not drawn) [Compound I-457]	≤ 0.1
C[C@H](c1cc(NC(=O)c2cc(F)cc(C(F)(F)F)c2)c2c(c1)C(=O)N[C@@H]2c1cc(F)ccc1Cl)S(C)(=O)=O (single isomer, unassigned) [Compound I-1643]	1 to 10
O=C1NC(c2cc(F)ccc2Cl)c2c(Nc3nn(C4CC4)c4ccccc34)cc(-c3ccc4ncnn4c3)cc21 (stereo not drawn) [Compound I-1809]	1 to 10
C[C@@H](CCC(F)(F)F)C(=O)Nc1cccc2c1[C@@H](c1cc(F)ccc1Cl)NC2=O [Compound I-2141]	10 to 100
O=C(Nc1cccc2c1C([C@@H]1CCCC[C@H]1O)NC2=O)c1cc(F)cc(C(F)(F)F)c1 (single isomer, unassigned) [Compound I-1971]	10 to 100
O=C1NC(c2cc(F)ccc2Cl)c2c(NC(=O)N3CC4CC(F)(C4)C3)cc(Br)cc21 (stereo not drawn) [Compound I-1753]	10 to 100
Cc1ccccc1[C@H]1NC(=O)c2cc(N)cc(NC(=O)c3cc(F)cc(C(F)(F)F)c3)c21 [Compound I-65]	1 to 10
COc1cc(C(=O)Nc2cc(N)cc3c2C(c2cc(F)ccc2C(F)F)NC3=O)cc(F)c1N (stereo not drawn) [Compound I-474]	10 to 100
O=C(Nc1cc(CNC2COC2)cc2c1C(c1cc(F)ccc1Cl)NC2=O)c1cc(F)cc(C(F)(F)F)c1 (stereo not drawn) [Compound I-352]	≤ 0.1
N#Cc1cc2nccn2cc1-c1cc(NC(=O)c2cc(F)cc(C(F)(F)F)c2)c2c(c1)C(=O)NC2c1cc(F)ccc1Cl (stereo not drawn) [Compound I-1437]	≤ 0.1
CC[C@H](CC(=O)Nc1cccc2c1[C@@H](c1cc(F)ccc1Cl)NC2=O)[C@@H](C)C(F)(F)F (single isomer, unassigned) [Compound I-2338]	10 to 100
COCc1cc(NC(=O)c2cc(F)cc(C(F)(F)F)c2)c2c(c1)C(=O)NC2c1cc(F)ccc1Cl (stereo not drawn) [Compound I-611]	≤ 0.1

SMILES	IC50 [µM]
NS(=O)(=O)Cc1cc(NC(=O)c2cc(F)cc(C(F)(F)F)c2)c2c(c1)C(=O)N[C@@H]2c1cc(F)ccc1Cl [Compound I-1479]	1 to 10
O=C1N[C@H](c2cc(F)ccc2Cl)c2c(NC(=O)N3C[C@@H](O)c4ccccc43)cc(-c3ccc4ncnn4c3)cc21 (single isomer, unassigned) [Compound I-1579]	0.5 to 1
CC(O)(CO)c1cc(NC(=O)c2cc(F)cc(C(F)(F)F)c2)c2c(c1)C(=O)NC2c1cc(F)ccc1Cl (stereo not drawn) [Compound I-382]	0.1 to 0.5
O=C(Nc1ccnc2c1C(c1ccccc1Cl)NC2=O)c1cc(F)c(F)c(Cl)c1 (stereo not drawn) [Compound I-550]	0.5 to 1
CC1(Cc2cc(NC(=O)N3C[C@](O)(C(F)(F)F)c4cc(F)ccc43)c3c(c2)C(=O)N[C@H]3c2cc(F)ccc2Cl)COC1 (single isomer, unassigned) [Compound I-2659]	1 to 10
CCn1cc(-c2cc(NC(=O)c3cc(F)cc(C(F)(F)F)c3)c3c(n2)C(=O)NC3c2cc(F)ccc2Cl)ccc1=O (stereo not drawn) [Compound I-586]	≤ 0.1
Cc1ccccc1[C@H]1NC(=O)c2cc(C(=O)NCC(F)F)cc(NC(=O)c3nsc4ccccc34)c21 [Compound I-165]	0.1 to 0.5
O=C(Nc1c(F)ccc2c1C(c1cc(F)ccc1C(F)F)NC2=O)c1cc(F)cc(C(F)(F)F)c1 (stereo not drawn) [Compound I-283, N-(3-(2-(Difluoromethyl)-5-fluorophenyl)-5-fluoro-1-oxoisoindolin-4-yl)-3-fluoro-5-(trifluoromethyl)benzamide]	0.5 to 1
O=C1N[C@H](c2cc(F)ccc2Cl)c2c(NC(=O)N3C[C@@](O)(CO)c4ccccc43)cccc21 [Compound I-2167]	10 to 100
O=C(CCC(F)(F)F)Nc1cccc2c1[C@H](c1cc(F)ccc1Cl)NC2=O [Compound I-2120]	10 to 100
O=C(Nc1cc(-c2ccn3nccc3c2)cc2c1C(c1cc(F)ccc1Cl)NC2=O)c1cc(F)cc(C(F)(F)F)c1 (stereo not drawn) [Compound I-1669]	≤ 0.1
Cc1cccc2c1CCN2C(=O)Nc1cccc2c1C(c1cc(F)ccc1Cl)NC2=O (stereo not drawn) [Compound I-2438]	1 to 10
O=C(Nc1cc(C(F)(F)F)ccc1Cl)Nc1cc(Br)cc2c1C(c1cc(F)ccc1Cl)NC2=O (stereo not drawn) [Compound I-1176]	0.1 to 0.5
O=C1NC(c2cc(F)ccc2Cl)c2c(NC(=O)C34CC5CC(C3)CC(C(F)(F)F)(C5)C4)cc(Br)cc21 (stereo not drawn) [Compound I-1183]	≤ 0.1
O=C1NC(c2cc(F)ccc2Cl)c2c(CC(=O)N3CCc4ccccc43)cc(-c3ccc4ncnn4c3)cc21 (stereo not drawn) [Compound I-1914]	10 to 100
N#CC1CN(S(=O)(=O)Cc2cc(NC(=O)c3cc(F)cc(C(F)(F)F)c3)c3c(c2)C(=O)NC3c2cc(F)ccc2Cl)C1 (stereo not drawn) [Compound I-1556]	≤ 0.1
O=C1NC(c2cc(F)ccc2Cl)c2c(NC(=O)C3(O)CCCC3)cc(-c3ccc4ncnn4c3)cc21 (stereo not drawn) [Compound I-1813]	10 to 100
O=C1NC(c2cc(F)ccc2Cl)c2c(NC(=O)N3CCc4ccc(=O)[nH]c43)cc(Br)cc21 (stereo not drawn) [Compound I-1429]	10 to 100
O=C(Nc1cc(Cc2ccc3nncn3c2)cc2c1C(c1cc(F)ccc1Cl)NC2=O)c1cc(F)cc(C(F)(F)F)c1 (stereo not drawn) [Compound I-1528]	≤ 0.1
O=C1NC(c2cc(F)ccc2Cl)c2c(NC(=O)N3CC(O)(c4scnc4C(F)(F)F)C3)cccc21 (stereo not drawn) [Compound I-2417]	10 to 100
O=C(Nc1cccc2c1C(C(=O)NC1CCCCC1)NC2=O)c1cc(F)cc(C(F)(F)F)c1 (stereo not drawn) [Compound I-2054]	10 to 100
